No end group written: not given here.
Key:
Test in all cases: biochemical
Type in all cases: binding
[1] = target: HLA-A11 (A*1101) (Homo sapiens, UniProt P04439, A114D/D185E/E176A/F33Y/L180Q/S129P/T187R)
[2] = target: A*6801 (Homo sapiens, UniProt P04439, A269V/D185E/E176V/E277Q/E87N/F33Y/G231S/I121M/I166T/I218V/L180W/L300P/L318F/N151K/P208A/P217A/Q86R/R169H/T345S)
[3] = target: A*3301 (Homo sapiens, UniProt P04439, A270S/D185E/E176V/E277Q/E87N/F33T/G231S/H175R/I121M/I218V/I322F/K168Q/K210R/L300P/L318F/M331R/P217A/Q86R/Q94H/R138Q/T323A/T345S/T97I/V358M/Y195H)
[4] = target: HLA-A3.2 (A*0301) (Homo sapiens, UniProt P04439)
[5] = target: A31 (A*3101) (Homo sapiens, UniProt P04439, A270S/D185E/E176V/E277Q/F33T/G231S/G80R/H175R/I121M/I218V/I322F/K168Q/L300P/L318F/M331R/P217A/Q94H/R138Q/T323A/T345S/T97I/V358M)

Row | Sequence | IC50 [1] [nM] | IC50 [2] [nM] | IC50 [3] [nM] | IC50 [4] [nM] | IC50 [5] [nM]
1 | KAILGQVVR [Peptide 9017.0092] | 5340 | 159 | > 20000 | 15500 | –
2 | KIDRLIDRIR [Peptide 9017.0249] | > 20000 | > 20000 | > 20000 | > 20000 | –
3 | KTLEERVKK [Peptide 78.0294] | 160 | > 20000 | > 20000 | 302 | –
4 | LLLIRFRCSK [Peptide 88.0164] | 6980 | 732 | > 20000 | 205 | –
5 | LNKMFCQLAR [Peptide 1556.49] | 8880 | 1800 | – | 11100 | –
6 | LQQLLFIHFR [Peptide 9017.0241] | 58 | 81 | – | 2490 | 1.3
7 | LTALITPKK [Peptide 9017.0101] | 4.2 | 6.5 | – | 41 | 4500
8 | LVKMFCQLAK [Peptide 1556.50] | 189 | 221 | – | 1200 | 3340
9 | MLIRYTCGK [Peptide 88.0377] | 14 | 15 | – | 34 | 1220
10 | MVIEPPKLR [Peptide 88.0360] | 271 | 13 | – | > 20000 | 729
11 | NTMDYTNWK [Peptide 88.0425] | 19 | 13 | – | 1600 | > 20000
12 | QLVTQLMPK [Peptide 9012.0211] | 79 | 2260 | – | 88 | > 20000
13 | QQMNMCQWIK [Peptide 88.0186] | 20 | 197 | 13100 | 346 | –
14 | QVLHLLKRK [Peptide 88.0365] | 320 | 801 | 1850 | 1550 | –
15 | RILSTYLGR [Peptide 9017.0072] | 7.2 | 457 | – | 7.5 | 1.6
16 | RTHSSHLKSKK [Peptide 1556.76] | 9.8 | 1360 | 10700 | 59 | –
17 | RTLTLLSVTK [Peptide 1556.13] | 15 | 219 | 6760 | 23 | –
18 | RVHSSHLK [Peptide 1556.72] | 13 | 1630 | – | 144 | 483
19 | SLYGKTLEER [Peptide 78.0142] | 1730 | 178 | 5500 | 56 | –
20 | SQWIRFRCSK [Peptide 88.0147] | 130 | 11800 | – | 415 | 373
21 | STAAALYWYK [Peptide 1587.06] | 1.6 | 5.9 | – | 4.5 | –
22 | STWHWTSDNK [Peptide 1589.22] | 17 | 18 | > 20000 | 161 | –
23 | TLDVYMIMVK [Peptide 9012.0258] | 17 | 2030 | > 20000 | 1560 | –
24 | VSYWGVYYIK [Peptide 1589.25] | 3 | 24 | 11500 | 109 | –
25 | VTVYDGVPVWR [Peptide 1525.08] | 246 | 59 | 5720 | 7840 | –
26 | VTYHSETQR [Peptide 1589.10] | 22 | 32 | – | 29 | 66
27 | WFFVETIVEK [Peptide 88.0171] | 1480 | – | 201 | 13700 | 18300
28 | WTIVYIEYRK [Peptide 9017.0243] | 37 | 0.94 | – | 4890 | 1350
29 | WTLELLEELK [Peptide 9017.0238] | 3840 | – | > 20000 | > 20000 | 17200

— patent US9340577B2, “HLA binding motifs and peptides and their uses” (priority 1992, dated 2016)
